Values of other authors, collected in PubChem BioAssay AID1259409 (Chemical Carcinogenesis Research Information System (CCRIS), 2018).

Test system: rodent chemically induced tumor inhibition, incidence and multiplicity
Experiment: CCRIS tumor inhibitor studies
Conditions: Promoter: NONE USED

CC(=O)OC/C=C(C)/C=C/C=C(C)/C=C/C1=C(C)CCCC1(C)C
tumour outcome (control, treated, inhibition, significance) (Carcinogen: 1,2-DIMETHYLHYDRAZINE, 540-73-8, Dose [Inhibitor]: 0.8 MMOL/KG DIET DAILY STARTING 12 D AFTER CARCINOGEN TREATMENT THROUGH ABOUT 8 MO AFTER CARCINOGEN DOSE (STUDY DURATION, Route [Inhibitor]: ORAL, Species: RAT, Strain/Sex: F344/MALE, Target Tissue: Type of Lesion: COLON: ADENOCARCINOMA, Dose [Carcinogen]: 150 MG/KG BW ONCE): 10/39 (26%), 7/30 (23%), 12%, not significant | tumour outcome (control, treated, inhibition, significance) (Carcinogen: 1,2-DIMETHYLHYDRAZINE, 540-73-8, Dose [Inhibitor]: 0.8 MMOL/KG DIET DAILY STARTING 12 D AFTER CARCINOGEN TREATMENT THROUGH ABOUT 8 MO AFTER CARCINOGEN DOSE (STUDY DURATION, Route [Inhibitor]: ORAL, Species: RAT, Strain/Sex: F344/MALE, Target Tissue: Type of Lesion: COLON: ADENOMA, Dose [Carcinogen]: 150 MG/KG BW ONCE): 23/39 (59%), 9/30 (30%), 49%, p<0.05 | tumour outcome (control, treated, inhibition, significance) (Carcinogen: 7,12-DIMETHYLBENZ[A]ANTHRACENE, 57-97-6, Dose [Inhibitor]: 0, 328 MG/KG OF DIET FROM DAY 34 TO 54 OF AGE (STUDY DURATION: 200 D), Route [Inhibitor]: ORAL, Species: RAT, Strain/Sex: SPRAGUE-DAWLEY/FEMALE, Target Tissue: Type of Lesion: MAMMARY GLAND: ADENOCARCINOMA, Dose [Carcinogen]: 15 MG/RAT ONCE AT 55 D OF AGE): 93%, 97%, -4%, not calculated | tumour outcome (control, treated, inhibition, significance) (Carcinogen: 7,12-DIMETHYLBENZ[A]ANTHRACENE, 57-97-6, Dose [Inhibitor]: 0, 328 MG/KG OF DIET FROM DAY 34 TO 54 OF AGE (STUDY DURATION: 200 D), Route [Inhibitor]: ORAL, Species: RAT, Strain/Sex: SPRAGUE-DAWLEY/FEMALE, Target Tissue: Type of Lesion: MAMMARY GLAND: BENIGN TUMORS, Dose [Carcinogen]: 15 MG/RAT ONCE AT 55 D OF AGE): 28%, 40%, -43%, not calculated | tumour outcome (control, treated, inhibition, significance) (Carcinogen: 7,12-DIMETHYLBENZ[A]ANTHRACENE, 57-97-6, Dose [Inhibitor]: 0, 350 MG/KG 1/WK FROM 40-90 D OF AGE THEN 0, 250 MG/KG 1/WK FROM 90-180 D OF AGE AND 0, 200 MG/KG 1/WK FROM 180-240 D O, Dose [Inhibitor]: 0, 350 MG/KG 1/WK FROM 40-90 D OF AGE THEN 0, 250 MG/KG 1/WK FROM 90-180 D OF AGE AND 0, 200 MG/KG 1/WK FROM 180-240 D O, Route [Inhibitor]: INTRAPERITONEAL, Species: RAT, Strain/Sex: SPRAGUE DAWLEY/FEMALE, Target Tissue: Type of Lesion: MAMMARY GLAND: ADENOCARCINOMA, FIBROADENOMA, Dose [Carcinogen]: 5 MG IN 0.2 ML SESAME OIL 1/2 D FOR 12 D BEGINNING AT 50 D OF AGE): 100%, 48%, 52%, p<0.001 | tumour outcome (control, treated, inhibition, significance) (Carcinogen: 7,12-DIMETHYLBENZ[A]ANTHRACENE, 57-97-6, Dose [Inhibitor]: 0.2 MILLIMOLAR IN DIET DAILY FOR 27 WK STARTING 3 D AFTER LAST CARCINOGEN DOSE AND CONTINUING THE END OF THE STUDY (STUD, Route [Inhibitor]: ORAL, Species: MOUSE, Strain/Sex: BDF/FEMALE, Target Tissue: Type of Lesion: MAMMARY GLAND: ADENOCARCINOMA, Dose [Carcinogen]: 1 MG/WK FOR 6 WK): 22/75 (29%), 31/75 (41%), -41%, not significant | tumour outcome (control, treated, inhibition, significance) (Carcinogen: 7,12-DIMETHYLBENZ[A]ANTHRACENE, 57-97-6, Dose [Inhibitor]: 0.2 MILLIMOLAR IN DIET DAILY FOR 27 WK STARTING 3 D AFTER LAST CARCINOGEN DOSE AND CONTINUING THROUGH THE END OF THE STU, Route [Inhibitor]: ORAL, Species: MOUSE, Strain/Sex: BDF/FEMALE, Target Tissue: Type of Lesion: MAMMARY GLAND: ADENOCANTHOMA, Dose [Carcinogen]: 1 MG/WK FOR 6 WK): 20/75 (27%), 19/75 (25%), 7%, not significant | tumour outcome (control, treated, inhibition, significance) (Carcinogen: 7,12-DIMETHYLBENZ[A]ANTHRACENE, 57-97-6, Dose [Inhibitor]: 68 MG/KG DIET DAILY FOR 11 WK STARTING 3 D AFTER CARCINOGEN TREATMENT (STUDY DURATION: 11 WK), Route [Inhibitor]: ORAL, Species: RAT, Strain/Sex: SPRAGUE-DAWLEY/FEMALE, Target Tissue: Type of Lesion: MAMMARY GLAND: CARCINOMA, Dose [Carcinogen]: 20 MG/ML SESAME OIL ONCE AT 53 D OF AGE): 100%, 92%, 8%, not significant | tumour outcome (control, treated, inhibition, significance) (Carcinogen: 7,12-DIMETHYLBENZ[A]ANTHRACENE, 57-97-6, Dose [Inhibitor]: 204 MG/KG DIET DAILY FOR 12 WK STARTING 3 D AFTER CARCINOGEN TREATMENT (STUDY DURATION: 12 WK), Route [Inhibitor]: ORAL, Species: RAT, Strain/Sex: SPRAGUE-DAWLEY/FEMALE, Target Tissue: Type of Lesion: MAMMARY GLAND: CARCINOMA, Dose [Carcinogen]: 10 MG/ML SESAME OIL ONCE AT 53 D OF AGE): 90%, 74%, 18%, not significant
